Experimental data from US9725703B2, “Formulations and methods for stabilizing PCR reagents” (BIOMATRICA, INC., priority 2012, dated 2017).

Biological target: T1, Roche FastStart Taq polymerase (Thermus aquaticus, UniProt P19821)
T1 construct: purchased Roche
Assay: Multiplex end-point PCR (GAPDH) with stabilized Roche FastStart Taq after storage
Assay type: biochemical
Conditions: 3 weeks at 45° C.; polymerase mixed 1:4 with stabilizer; FIG. 1b
Protocol: Roche FastStart Taq polymerase (stored at −20° C. in 50% glycerol) was mixed in a 1:4 ratio with a range of liquid stabilizer solutions as set forth in Table 4 and incubated at both room temperature and 45° C. A non-protected sample was also included where the polymerase was mixed with an additional quantity of its storage buffer. At various time points, aliquots were taken from the stabilized enzyme solutions and used to perform end-point PCR assays. At each time point, the stabilized enzymes were compared to a frozen positive control enzyme in the same assay.
For end-point PCR, a multiplex assay using three primer sets to generate 3 different size fragments of the GAPDH gene was used. Typical PCR reactions contained the following: 1× Roche PCR reaction buffer, 10 ng human genomic DNA, 300 μM dNTPs, 240 nM GAPDH primer set A, 600 nM GAPDH primer set B, 1.2 μM GAPDH primer set C, and 1 unit Roche FastStart Taq polymerase. Cycling conditions were 2 minutes at 95° C. followed by 35 cycles of 30 seconds at 95° C., 30 seconds at 56° C., 30 seconds at 68° C., followed by 5 minutes at 68° C. PCR products were run on 2% agarose gels and visualized using ethidium bromide.

T1 sequence (P19821 whole entry): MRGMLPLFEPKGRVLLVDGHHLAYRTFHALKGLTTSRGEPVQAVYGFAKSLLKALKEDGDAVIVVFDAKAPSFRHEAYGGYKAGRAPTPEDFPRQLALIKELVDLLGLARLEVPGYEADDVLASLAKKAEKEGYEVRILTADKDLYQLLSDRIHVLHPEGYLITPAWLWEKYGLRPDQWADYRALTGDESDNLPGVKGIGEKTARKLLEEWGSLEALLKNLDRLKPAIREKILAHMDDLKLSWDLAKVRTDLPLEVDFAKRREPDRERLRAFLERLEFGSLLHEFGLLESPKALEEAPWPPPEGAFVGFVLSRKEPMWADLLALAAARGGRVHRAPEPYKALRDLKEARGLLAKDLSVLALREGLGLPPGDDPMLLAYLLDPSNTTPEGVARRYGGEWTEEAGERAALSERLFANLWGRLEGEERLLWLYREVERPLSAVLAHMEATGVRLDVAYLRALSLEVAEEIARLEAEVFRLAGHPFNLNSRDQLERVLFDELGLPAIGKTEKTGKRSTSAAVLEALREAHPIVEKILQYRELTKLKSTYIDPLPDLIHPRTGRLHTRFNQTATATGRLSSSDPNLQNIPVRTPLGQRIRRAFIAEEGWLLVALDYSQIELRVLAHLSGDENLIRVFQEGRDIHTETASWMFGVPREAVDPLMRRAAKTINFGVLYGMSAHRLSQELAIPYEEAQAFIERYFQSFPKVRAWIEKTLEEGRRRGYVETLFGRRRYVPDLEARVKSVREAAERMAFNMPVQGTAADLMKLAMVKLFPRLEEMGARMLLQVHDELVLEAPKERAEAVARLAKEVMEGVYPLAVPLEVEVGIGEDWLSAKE

Compound: C[N+]1(CCC(=O)[O-])CCC(O)CC1 (stereo not shown) [Compound 102, 3-(4-hydroxy-1-methylpiperidinium-1-yl)propanoate]
- polymerase activity after storage (end-point PCR): provides increased stability
